From patent US11220674B2, “Stabilization of dehydrogenases with stable coenzymes” (ROCHE DIABETES CARE, INC., priority 2009, dated 2022)

Columns and labels:
[1] = target: glucose dehydrogenase/NAD system (Bacillus subtilis, UniProt P12310); assay: Photometric glucose determination with GlucDH/NAD, mediator and 2,18-phosphomolybdic acid (reflectance); conditions: for reflectance of the measured sample: glucose concentration in the region of 800 mg/dl; for reflectance versus glucose concentration: test elements stored at room temperature for 11 weeks, GlucDH, NAD, mediator, 2,18-phosphomolybdic acid
Experimental: To determine glucose, various test systems which included in each case glucose dehydrogenase, NAD, a mediator and, where appropriate, an optical indicator were measured photometrically and electrochemically.
For photometric measurements, initially four test elements which had in each case been stored at room temperature for 11 weeks and comprised 2,18-phosphomolybdic acid, besides glucose dehydrogenase, NAD and a mediator, were investigated with various glucose concentrations.

[2] = target: T1, glucose dehydrogenase (GlucDH) (Bacillus subtilis, UniProt P12310); assay: Stability of GlucDH in liquid phase at 50° C. with coenzyme (residual activity); assay type: biochemical
Experimental: FIG. 11A is a depiction of the stability of glucose dehydrogenase in the presence of NAD and cNAD, respectively, in liquid phase at 50° C. over a period of 4 days Test conditions: GlucDH 10 mg/ml; NAD and cNAD, respectively, 12 mg/ml; buffer: 0.1 M Tris, 1.2 M NaCl, pH 8.5; temperature 50° C.
FIG. 11B is a depiction of the stability of glucose dehydrogenase in the presence of NAD and cNAD, respectively, in liquid phase at 50° C. over a period of 14 days at the same test conditions as FIG. 11A.
After 95 hours at 50° C., the residual activity of glucose dehydrogenase in the presence of the native coenzyme NAD is ≈5%, whereas the residual activity of GlucDH in the presence of the artificial coenzyme cNAD is 75% (FIG. 11A). After storage at 50° C. for 336 hours, the residual activity of the enzyme stabilized with NAD is now only about 1%; the residual activity of the enzyme stored in the presence of cNAD is observed to be still about 70%.

[3] = target: glucose dehydrogenase (Bacillus subtilis, UniProt P12310); assay: Electrochemical glucose determination with GlucDH, coenzyme and mediator (current); conditions: 25 mM coenzyme; mediator 1-(3-carboxypropoxy)-5-ethylphenazinium trifluoromethanesulfonate
Experimental: FIG. 20 is a depiction of the current measured as a function of the glucose concentration in the electrochemical determination of glucose using glucose dehydrogenase in the presence of NAD and cNAD, respectively. Test conditions: 25 mM NAD and cNAD, respectively; 2.5 seconds delay; 5 seconds measurement time.
As alternative to photometry it is also possible to employ an electrochemical measurement for the purpose of determining analytes.

[4] = target: T2, alcohol dehydrogenase from yeast (Saccharomyces cerevisiae, UniProt P00330); assay: Stability of alcohol dehydrogenase in liquid phase at 35° C. with coenzyme (residual activity); assay type: biochemical; conditions: after 65 hours at 35° C.
T2 sequence (P00330 1-348): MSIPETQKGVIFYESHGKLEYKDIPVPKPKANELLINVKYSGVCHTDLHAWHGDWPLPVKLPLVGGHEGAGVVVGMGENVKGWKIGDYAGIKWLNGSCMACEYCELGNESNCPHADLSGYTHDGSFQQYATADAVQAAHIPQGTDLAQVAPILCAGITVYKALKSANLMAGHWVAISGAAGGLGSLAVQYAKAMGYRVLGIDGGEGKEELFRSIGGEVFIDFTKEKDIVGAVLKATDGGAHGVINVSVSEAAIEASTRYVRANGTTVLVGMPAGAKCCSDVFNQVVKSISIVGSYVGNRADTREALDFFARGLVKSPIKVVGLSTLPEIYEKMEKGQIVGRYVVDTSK
Experimental: FIG. 14 is a depiction of the stability of alcohol dehydrogenase from yeast in the presence of NAD and cNAD, respectively, in liquid phase at 35° C. over a period of 65 hours. Test conditions: ADH 5 mg/ml; NAD and cNAD, respectively, 50 mg/ml; buffer: 75 mM Na4P207, glycine, pH 9.0; temperature 35° C.
(§1) cNAD or NAD were added to an alcohol detection solution. These mixtures were stored at 35° C. The stability of the enzyme was then checked at regular intervals, and the residual activity of the enzyme was determined.
After 65 hours at 35° C., the residual activity of alcohol dehydrogenase in the presence of the native coenzyme NAD is about 6%, whereas the residual activity of the enzyme in the presence of the artificial coenzyme cNAD is still about 60%.

[5] = target: T1, glucose dehydrogenase (GlucDH); assay: SDS gel electrophoresis of GlucDH after storage with coenzyme
Experimental: Test conditions: MW, 10 220 kDa markers; 1: GlucDH/NAD, 5 weeks at 6° C.; 2: GlucDH/NAD, 5 weeks at 32° C./85% relative humidity; 3: GlucDH/cNAD, 5 weeks at 6° C.; 4: GlucDH/cNAD, 5 weeks at 32° C./85% relative humidity.
Test conditions: MW, 10 220 kDa markers; 1: GlucDH 8.5 mg/ml, NAD, 0 hours; 2: GlucDH 8.5 mg/ml, NAD, 22 hours; 3: GlucDH 8.5 mg/ml, NAD, 96 hours; 4: GlucDH 8.5 mg/ml, NAD, 118 hours; 5: GlucDH 8.5 mg/ml, NAD, 140 hours; 6: GlucDH 8.5 mg/ml, NAD, 188 hours; 7: GlucDH 8.5 mg/ml, NAD, 476 hours; 8: GlucDH 8.5 mg/ml, cNAD, 0 hours; 9: GlucDH 8.5 mg/ml, cNAD, 188 hours; 10: GlucDH 8.5 mg/ml, cNAD, 476 hours.

[6] = target: T2, alcohol dehydrogenase from yeast; assay: SDS gel electrophoresis of alcohol dehydrogenase after storage with coenzyme
Experimental: Test conditions: MW, 10 220 kDa markers; 1: ADH, 65 hours at 6° C.; 2: ADH/cNAD, 65 hours at 6° C.; 3: ADH/NAD, 65 hours at 6° C.; 4: ADH, 65 hours at 35° C.; 5: ADH/cNAD, 65 hours at 35° C.; 6: ADH/NAD, 65 hours at 35° C.
Test conditions: MW, 10 220 kDa markers; 1: ADH/NAD, 0 days; 2: ADH/NAD, 1 day; 3: ADH/NAD, 2 days; 4: ADH/NAD, 3 days; 5: ADH/NAD, 5 days; 6: ADH/cNAD, 0 days; 7: ADH/cNAD, 1 day; 8: ADH/cNAD, 2 days; 9: ADH/cNAD, 3 days; 10: ADH/cNAD, 6 days.
as §1

[7] = target: GlucDH_E170K_K252L (GlucDH-Mut2) (Bacillus subtilis, UniProt P12310, A229V/A236S/E170K/Q252L); assay: Residual activity of GlucDH mutant after dry storage with coenzyme; assay type: biochemical; conditions: storage at 32° C. and 85% relative humidity for 24 weeks
Experimental: (§2) FIG. 8 is a depiction of the GlucDH activity after storage of glucose dehydrogenase (GlucDH wt), the double mutant GlucDH_E96G_EI70K (GlucDH Mut1) and the double mutant GlucDH_E170K_K252L (GlucDH Mut2) in the presence of NAD and cNAD, respectively, at 32° C. and 83% relative humidity over a period of 25 weeks.
(§3) Carba-NAD (FIG. 1A) or NAD were added to the glucose-specific GlucDH. These formulations were in each case applied to Pokalon film (Lonza) and, after drying, stored under warm and moist conditions (32° C., 85% relative humidity). The reaction kinetics and the function plot were subsequently determined at regular intervals. In parallel, at each of the times of measurement a cNAD/NAD analysis and a determination of the residual activity of the enzyme were carried out.
(§4) If a mutant is used instead of the wild-type enzyme (from Bacillus subtilis), it is possible to increase the residual GlucDH activity even further. […]

[8] = target: GlucDH_E96G_E170K (GlucDH-Mut1) (Bacillus subtilis, UniProt P12310, A229V/A236S/E170K/E96G/Q252K); assay: as above; assay type: biochemical; conditions: storage at 32° C. and 85% relative humidity for 24 weeks
Experimental: as §2, §3, §4

[9] = Residual content of coenzyme in glucose detection reagent after dry storage on film (cNAD/NAD analysis); assay type: physicochemical; conditions: storage at 32° C. and 85% relative humidity for 24 weeks
Experimental: as §3
The relation between structure of the coenzyme and its stability over a predetermined period is evident from FIG. 6. According to this, the residual content of cNAD in a glucose detection reagent after storage (at 32° C. and 85% relative humidity) for 24 weeks is still about 80% of the initial level, whereas the content of NAD in a glucose detection reagent stabilized with NAD declines after only 5 weeks to about 35% of the initial level and, by extrapolation, is reduced to zero after about 17 weeks.

[10] = target: glucose dehydrogenase (GlucDH), wild-type (Bacillus subtilis, UniProt P12310); assay: Residual activity of GlucDH after dry storage on film with coenzyme; assay type: biochemical
Experimental: as §3
The result of the determination of residual activity of the active GlucDH enzyme after 5 weeks at 32° C. and 85% relative humidity (FIG. 7A) is completely surprising. […] After 24 weeks at 32° C. and 85% relative humidity (FIG. 7B), the residual activity of the enzyme on stabilization with cNAD is still about 25%.

[11] = target: T1, glucose dehydrogenase (GlucDH); assay: Reaction kinetics, function plot and dry blank value of GlucDH test film after storage; assay type: biochemical
Experimental: as §3
However, a distinct difference in the kinetics plots is evident after 5 weeks.
There is also a distinct difference in the blank values (dry blank value before application of a blood sample), as is evident from FIG. 3.
The differing stability of glucose dehydrogenase in the presence of NAD and cNAD, respectively, is also evident from comparison of FIGS. 4 and 5.

[12] = storage at 50° C. for 336 hours
[13] = after 5 weeks at 32° C. and 85% relative humidity, versus samples stored in refrigerator with desiccant

Compound | reflectance of the measured sample [1] | reflectance versus glucose concentration [1] | residual activity of glucose dehydrogenase ([2]; after 95 hours at 50° C.) | residual activity of glucose dehydrogenase [2, 12] | residual activity of alcohol dehydrogenase [4] | residual activity of GlucDH enzyme [10, 13] | also measured
Cl.O=Nc1ccc(N(CO)CO)cc1 [Med A, [(4-nitrosophenyl)imino]dimethanol hydrochloride] | about 20% | a fall in the reflectance was observed with increasing glucose concentration |  |  |  |  | 
CC[n+]1c2ccccc2nc2c(OCCCC(=O)O)cccc21.O=S(=O)([O-])C(F)(F)F [Med G, 1-(3-carboxypropoxy)-5-ethylphenazinium trifluoromethanesulfonate] | about 20% | a fall in the reflectance was observed with increasing glucose concentration |  |  |  |  | 
NC(=O)c1ccc[n+]([C@@H]2C[C@H](COP(=O)([O-])OP(=O)(O)OC[C@H]3O[C@@H](n4cnc5c(N)ncnc54)[C@H](O)[C@@H]3O)[C@@H](O)[C@H]2O)c1 [cNAD, carba-NAD] |  |  | 75% | about 70% | about 60% | 70% | current required to reoxidize the reduced mediator versus glucose concentration [3]: linearly dependent on the glucose concentration; enzyme band in SDS gel ([5]; storage at 50° C., after 476 hours): only slight change; enzyme band in SDS gel ([5]; storage for 5 weeks at 32° C. and 85% relative humidity): still identifiable as a band with the expected mobility; alcohol dehydrogenase band in SDS gel ([6]; storage at 35° C., NAD 5 days, cNAD 6 days): distinctly less decomposition of the enzyme; alcohol dehydrogenase band in SDS gel ([6]; storage for 65 hours at 35° C. (versus 6° C.)): differ only slightly; residual activity of GlucDH_E170K_K252L mutant [7]: about 50%; residual activity of GlucDH_E96G_E170K mutant [8]: about 70%; residual content of coenzyme in glucose detection reagent [9]: about 80 % of the initial level; residual activity of GlucDH enzyme ([10]; after 24 weeks at 32° C. and 85% relative humidity): about 25%; function plot of GlucDH after storage ([11]; after 5 weeks at 32° C., 85% humidity): still in the bunch of previous measurements; kinetics plots of GlucDH after storage ([11]; after 5 weeks at 32° C., 85% relative humidity): remain virtually unchanged; function plot of GlucDH after storage ([11]; over 24 weeks at 32° C., 85% humidity): only slightly changed at high glucose concentrations; dry blank value (before application of blood sample) ([11]; up to 5 weeks at 32° C., 85% humidity): this does not occur
NC(=O)c1ccc[n+]([C@@H]2O[C@H](COP(=O)([O-])OP(=O)(O)OC[C@H]3O[C@@H](n4cnc5c(N)ncnc54)[C@H](O)[C@@H]3O)[C@@H](O)[C@H]2O)c1 [NAD, nicotinamide adenine dinucleotide, reference compound] |  |  | ≈ 5% | about 1% | about 6% | 0.5% | 
C[n+]1cccc2c1C(=O)C(=O)c1cccnc1-2.O=S(=O)([O-])C(F)(F)F [Med F, 7-methyl-5,6-dioxo-5,6-dihydro-1,7-phenanthrolinium trifluoromethanesulfonate] |  | a fall in the reflectance was observed with increasing glucose concentration |  |  |  |  | 
C[n+]1cccc2c1-c1ncccc1C(=O)C2=O.O=S(=O)([O-])C(F)(F)F [Med B, 1-methyl-5,6-dioxo-5,6-dihydro-1, 10-phenanthrolinium trifluoromethanesulfonate] |  | a fall in the reflectance was observed with increasing glucose concentration |  |  |  |  | 
